Measurements from paper PMC12376128, “In vitro and In Vivo Drug Metabolism Analysis of BPI-460372 - A Covalent TEAD1/3/4 Inhibitor” (Current Drug Metabolism, 2025).
Read-outs that look alike come from different tables or passages of the source.

Experiments:
human hepatocytes [1] = details: 0 h
Protocol: (§5) 10 µM BPI-460372 was incubated in five species (human, cynomolgus monkey, beagle dog, SD rat, and ICR mouse) hepatocytes (1 × 10^6 cells·min^-1) at 37 °C for 4 h. 7-EC, as positive control, was incubated for 0 h and 4 h. For blank control, hepatocytes were inactivated by adding ice-cold acetonitrile, and then the BPI-460372 solution was added. All the samples were duplicates. Incubations were stopped using the same volume of cold acetonitrile. The tube was vortexed, and the duplicate samples were combined. Metabolite profiling and identification of BPI-460372 were conducted by using UHPLC-Orbitrap-HRMS. The samples of 7-EC were analyzed by LC-MS/MS and then semi-quantified using the peak area ratio of analyte versus IS.
(§6) For hepatocyte metabolite identification, the different metabolites of BPI-460372 were detected using an ACQUITY UPLC HSS T3 column (1.8 µm, 100 mm × 2.1 mm) and ACQUITY UPLC BEH C18 column (1.7 µm, 100 mm × 2.1 mm) for rat and dog metabolite identification. The mobile phase contained a mixture of 0.1% formic acid in water (A) and 0.1% formic acid in acetonitrile (B). The gradient elution program was as follows: 0.0-1.0 min, 5% B; 1.0-7.0 min, 5%-30% B; 7.0-12.0 min, 30%-80% B; 12.0-16.0 min, 80%-95% B; 16.0-18.0 min, 95% B; 18.0-18.1 min, 95%-5% B. Then, 5% B from 18.1 to 20.0 min was maintained for equilibration. The flow rate was set to 0.5 mL/min, and the column temperature was kept at 40°C. Eluted fractions were monitored by a UV detector at 314 nm.

rat hepatocytes = experiment: Metabolism and metabolite formation in hepatocytes; assay type: in vitro ADME, SD rat;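 for Area Ratio T0 h: peak area of analyte divided by internal standard peak area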
Text: (§1) All the samples were duplicates.

monkey hepatocytes = experiment: Metabolism and metabolite formation in hepatocytes; assay type: in vitro ADME, cynomolgus monkey;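 for Area Ratio T4 h: peak area of analyte divided by internal standard peak area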
Text: as §1

mouse hepatocytes = experiment: Metabolism and metabolite formation in hepatocytes; assay type: in vitro ADME, ICR mouse;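 for Area Ratio T0 h: peak area of analyte divided by internal standard peak area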;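 for Area Ratio T4 h: peak area of analyte divided by internal standard peak area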
Text: as §1

dog hepatocytes = experiment: Metabolism and metabolite formation in hepatocytes; assay type: in vitro ADME, beagle dog;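 for Area Ratio T0 h: peak area of analyte divided by internal standard peak area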;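 for Area Ratio T4 h: peak area of analyte divided by internal standard peak area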
Text: as §1

human hepatocytes [2] = experiment: Metabolism and metabolite formation in hepatocytes
Protocol: as §5, §6

[3] = design: method as in PMID 32250617; details: dog whole blood, compared with compound 18 (acrylamide warhead); cited from earlier work
[4] = design: method as in PMID 32250617; details: mouse whole blood, compared with compound 18 (acrylamide warhead); cited from earlier work
[5] = design: method as in PMID 32250617; details: human whole blood, compared with compound 18 (acrylamide warhead); cited from earlier work
[6] = Metabolite identification in rat plasma, urine, feces and bile; assay type: in vivo, SD rats
Protocol: (§2) The plasma samples were acquired from SD rats (n=6, 3 female and 3 male) and beagle dogs (n=6, 3 female and 3 male) after administration of 12 mg/kg and 8 mg/kg of BPI-460372, respectively. The rat urine, feces, and bile samples were acquired in SD rats after administration of 6 mg/kg of BPI-460372.
(§3) Equal volume from each rat was pooled together to get 1 male and 1 female 0-24 h plasma samples. An equal percentage by volume of individual urine sample (0-8, 8-24, and 24-48 h) from 3 female and 3 male rats was pooled by time interval across rats, respectively, resulting in two pooled urine samples (1 male and 1 female). An equal percentage by weight of individual feces samples (0-8, 8-24, and 24-48 h) was pooled by time interval across female and male rats, resulting in two pooled fecal samples. An equal percentage by volume of individual bile samples (0-4, 4-8, 8-24, and 24-48 h) was pooled by time interval across female and male rats, resulting in two pooled bile samples. […] Equal volumes from 3 female and 3 male rats were pooled together to get two 0-48 h plasma samples. For blank samples of plasma, urine, and bile, equal volume was pooled across subjects. For a blank sample of feces, equal weight was pooled across rats.
(§4) The pooled plasma, feces, and bile samples were extracted by adding 3-fold volume of acetonitrile, and the mixture was vortexed (1 min) and sonicated (1 min) before centrifugation (7220 g, 5 min). The pooled urine samples were centrifuged (7220 g, 5 min). Then the supernatant was transferred into a clean tube and evaporated to dryness under the nitrogen stream. The residues were redissolved with an appropriate volume of acetonitrile/water (20: 80, v: v). After centrifugation, the redissolved solution was transferred into an HPLC vial for UHPLC-Orbitrap-HRMS (15000 g, 10 min, 4°C).

TEAD proteins = experiment: Covalent binding to TEAD proteins (in vitro); details: in vitro studies
TEAD palmitoylation = experiment: Inhibition of TEAD palmitoylation (in vitro); assay type: biochemical; details: in vitro studies
[7] = tested on: cysteine S-conjugate β-lyase; experiment: Effect of cysteine S-conjugate β-lyase inhibitor AOAA on the metabolism of BPI-460372 (rat urine); details: 20 mg/kg BPI-460372 + 100 mg/kg AOAA, once daily 21 days, urine 0-48 h on day 21
Protocol: To investigate the effect of cysteine S-conjugate β-lyase on the metabolism of BPI-460372, SD rats were treated with 20 mg/kg BPI-460372 alone (n=3, male) or 20 mg/kg BPI-460372 coadministration with 100 mg/kg cysteine S-conjugate β-lyase inhibitor AOAA (n=3, male), once daily for 21 consecutive days. On day 21, urine samples were collected at 0-8, 8-24 and 24-48 h. The same percentage of urine samples from each rat was taken at these three time intervals and mixed. The samples were analyzed by LC-MS/MS and then semi-quantified using the peak area ratio of analyte versus IS.

[8] = Formation of M335 in HLMs with and without NADPH; assay type: in vitro ADME, human; details: 45 minutes of incubation of BPI-460372 with HLMs
[9] = Metabolite identification in dog plasma; assay type: in vivo, beagle dogs; details: oral 8 mg/kg BPI-460372, average of male and female pooled samples
Protocol: as §2, §3, §4

CYPs and GSTs = tested on: CYPs and GSTs; design: method as in earlier work; details: multiple CYPs and GSTs pathways; cited from earlier work
[10] = oral 6 mg/kg BPI-460372, average of male and female pooled samples

CCOc1ccc2ccc(=O)oc2c1 [7-EC, 7-ethoxycoumarin, reference compound]
Area Ratio T0 h (human hepatocytes [1]): 3.36E+07
Area Ratio T0 h (rat hepatocytes; rat hepatocytes, 7-EC incubation, 0 h): 2.64E+07
Area Ratio T4 h (rat hepatocytes; rat hepatocytes, 7-EC incubation, 4 h): 6.62E+06
Proportion of 7-EC remaining in hepatocytes after 4 h incubation (rat hepatocytes; rat, hepatocytes): 25.08%
Area Ratio T0 h (monkey hepatocytes; monkey hepatocytes, 7-EC incubation, 0 h): 2.65E+07
Area Ratio T4 h (monkey hepatocytes; monkey hepatocytes, 7-EC incubation, 4 h): 9.51E+04
Proportion of 7-EC remaining in hepatocytes after 4 h incubation (monkey hepatocytes; monkey, hepatocytes): 0.36%
Area Ratio T0 h (mouse hepatocytes; mouse hepatocytes, 7-EC incubation, 0 h): 2.39E+07
Area Ratio T4 h (mouse hepatocytes; mouse hepatocytes, 7-EC incubation, 4 h): 1.46E+05
Proportion of 7-EC remaining in hepatocytes after 4 h incubation (mouse hepatocytes; mouse, hepatocytes): 0.61%
Area Ratio T0 h (dog hepatocytes; dog hepatocytes, 7-EC incubation, 0 h): 2.18E+07
Area Ratio T4 h (dog hepatocytes; dog hepatocytes, 7-EC incubation, 4 h): 1.01E+05
Proportion of 7-EC remaining in hepatocytes after 4 h incubation (dog hepatocytes; dog, hepatocytes): 0.46%
Area Ratio T4 h (human hepatocytes [2]; human hepatocytes, 7-EC incubation, 4 h): 7.50E+06
Proportion of 7-EC remaining in hepatocytes after 4 h incubation (human hepatocytes [2]; human, hepatocytes): 22.32%

C=C(F)C(=O)N1CCN(c2nc(OC[C@@H]3CCCN3C)nc3c2CCN(c2cccc4cccc(Cl)c24)C3)C[C@@H]1CC#N [Adagrasib]
Stability in whole blood [3]: higher stability
Stability in whole blood [4]: higher stability
Stability in whole blood [5]: higher stability

O=c1n(-c2ccc(C(F)(F)F)cc2)c2nccnc2n1C1CNC1 [M335 (BPI-460608)]
Relative abundance of MS peak areas, Rat Bile 0-48 h [6, 10]: 0.070%
Relative abundance of MS peak areas, Rat Feces 0-48 h [6, 10]: 4.83%
Relative abundance of MS peak areas, Rat Urine 0-48 h [6, 10]: 13.23%
Relative abundance of MS peak areas, Rat Plasma 0-24 h ([6]; oral 12 mg/kg BPI-460372, average of male and female pooled samples): 2.48%
UV (314 nm) Peak Areas Relative Abundance (rat hepatocytes; SD rat hepatocytes, 10 µM BPI-460372, 4 h incubation): 3.9%
Covalent binding to TEAD proteins (TEAD proteins): do not covalently bind
Activity: inhibition of TEAD palmitoylation (TEAD palmitoylation): inactive
UV (314 nm) Peak Areas Relative Abundance (monkey hepatocytes; cynomolgus monkey hepatocytes, 10 µM BPI-460372, 4 h incubation): 16.99%
UV (314 nm) Peak Areas Relative Abundance (mouse hepatocytes; ICR mouse hepatocytes, 10 µM BPI-460372, 4 h incubation): 26.4%
Area ratio in rat urine, mean (%CV) [7]: 1.41 (48)
UV (314 nm) Peak Areas Relative Abundance (dog hepatocytes; beagle dog hepatocytes, 10 µM BPI-460372, 4 h incubation): 18.82%
Formation of M335 without NADPH versus HLMs+NADPH group [8]: comparable
Relative abundance of MS peak areas, Dog Plasma 0-48 h [9]: 8.45%
UV (314 nm) Peak Areas Relative Abundance (human hepatocytes [2]; human hepatocytes, 10 µM BPI-460372, 4 h incubation): 11.47%

C=CC(=O)N1C[C@H](Nc2ncnc3[nH]ccc23)CC[C@@H]1C [Ritlecitinib]
Contribution of any single route to the total metabolism (CYPs and GSTs): ≤ 25%
